Results on 20 compounds are retold here after patent US11584747B2, “Substituted pyridopyrimidinonyl compounds useful as T cell activators” (BRISTOL-MYERS SQUIBB COMPANY, priority 2019, dated 2023).

Molecules are shown by their SMILES. pEC50, pIC50: −log10 of the molar value.

One assay deals with human DGKζ (Homo sapiens (Human), UniProt Q13574). The assay is described as follows: DGKζ LIPGLO assay (extruded liposome substrate, ADP-Glo luminescence). In kind it is biochemical. The note with it: liposome (LIPGLO) assay; read-out: DGK zeta (liposome assay) IC50.
Sequence of human DGKζ (Q13574 other isoform, or with tags, fused parts or gaps): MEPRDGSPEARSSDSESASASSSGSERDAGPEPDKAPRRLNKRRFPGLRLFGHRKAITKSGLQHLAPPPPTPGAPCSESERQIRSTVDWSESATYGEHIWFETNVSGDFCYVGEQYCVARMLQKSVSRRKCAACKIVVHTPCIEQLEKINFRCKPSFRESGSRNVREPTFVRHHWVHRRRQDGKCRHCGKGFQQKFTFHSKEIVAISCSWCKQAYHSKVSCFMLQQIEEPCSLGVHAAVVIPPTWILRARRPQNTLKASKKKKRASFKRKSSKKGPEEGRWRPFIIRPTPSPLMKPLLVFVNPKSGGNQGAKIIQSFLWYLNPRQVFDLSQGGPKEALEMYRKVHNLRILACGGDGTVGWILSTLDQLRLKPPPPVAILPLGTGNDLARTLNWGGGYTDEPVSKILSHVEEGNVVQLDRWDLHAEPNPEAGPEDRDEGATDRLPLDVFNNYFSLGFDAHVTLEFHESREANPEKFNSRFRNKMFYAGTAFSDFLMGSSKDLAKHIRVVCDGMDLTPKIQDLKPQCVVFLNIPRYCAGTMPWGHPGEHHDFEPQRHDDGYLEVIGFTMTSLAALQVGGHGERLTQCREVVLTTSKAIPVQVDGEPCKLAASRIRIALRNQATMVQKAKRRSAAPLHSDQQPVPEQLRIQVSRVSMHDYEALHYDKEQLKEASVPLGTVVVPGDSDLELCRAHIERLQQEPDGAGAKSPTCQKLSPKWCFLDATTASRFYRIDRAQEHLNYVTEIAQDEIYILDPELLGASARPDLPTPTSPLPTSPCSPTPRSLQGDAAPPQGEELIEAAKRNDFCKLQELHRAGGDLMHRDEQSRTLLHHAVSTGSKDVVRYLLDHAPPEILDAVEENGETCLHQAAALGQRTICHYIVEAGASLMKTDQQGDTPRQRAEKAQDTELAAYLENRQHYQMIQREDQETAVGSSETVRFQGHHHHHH
A further assay relates to whole blood (pERK). The assay is described as follows: pERK Whole Blood. In kind it is cell-based.
The target in another assay is human DGKα (Homo sapiens (Human), UniProt P23743). Briefly: DGKα ADPGLO assay (detergent/lipid micelle substrate). The note with it: ADPGLO assay; read-out: DGK alpha ADPGLO IC50. The format is biochemical. Here is the method: DGK Alpha ADPGLO (Truncated) IC50 (uM)
Sequence of human DGKα (P23743 whole entry, looked up, the tested form may be a part): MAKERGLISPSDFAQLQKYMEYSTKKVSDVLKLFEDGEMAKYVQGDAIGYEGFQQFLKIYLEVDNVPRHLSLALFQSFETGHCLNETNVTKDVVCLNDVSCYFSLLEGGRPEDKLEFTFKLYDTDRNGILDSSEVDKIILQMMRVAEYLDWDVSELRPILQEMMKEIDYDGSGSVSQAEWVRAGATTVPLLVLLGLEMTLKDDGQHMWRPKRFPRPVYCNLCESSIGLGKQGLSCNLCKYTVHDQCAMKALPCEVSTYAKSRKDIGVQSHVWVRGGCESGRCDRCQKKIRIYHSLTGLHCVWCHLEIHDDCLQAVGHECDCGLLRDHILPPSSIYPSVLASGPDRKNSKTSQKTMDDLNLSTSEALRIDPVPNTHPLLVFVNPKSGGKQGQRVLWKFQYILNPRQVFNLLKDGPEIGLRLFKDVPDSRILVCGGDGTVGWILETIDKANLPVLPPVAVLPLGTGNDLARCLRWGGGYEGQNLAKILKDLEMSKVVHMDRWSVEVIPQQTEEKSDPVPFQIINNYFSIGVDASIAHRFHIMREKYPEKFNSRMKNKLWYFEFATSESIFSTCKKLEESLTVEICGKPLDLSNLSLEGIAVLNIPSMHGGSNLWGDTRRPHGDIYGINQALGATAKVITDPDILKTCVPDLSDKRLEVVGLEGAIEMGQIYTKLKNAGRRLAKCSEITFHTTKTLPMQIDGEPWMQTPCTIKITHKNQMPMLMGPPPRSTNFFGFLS
The detergent/lipid micelle was prepared by combining 15 g phosphatidylserine (Avanti 840035P) and 1 g diacylglycerol (8008110) and dissolving into 150 mL chloroform in a 2 L round bottom flask. Chloroform was removed under high vacuum by rotary evaporation. […] The lipid/detergent solution was split into 5 mL aliquots and stored at −80° C.

For the compound `CCC(c1ccc(OCC2CN(C)C2)cc1)N1C[C@H](C)N(c2nc(=O)n(C)c3ccc(C#N)nc23)C[C@H]1CC` (stereo partly drawn) [Example 343, 4-((2 S, 5R)-5-ethyl-2-methyl-4-(1-(4-((1-methylazetidin-3-yl)methoxy)phenyl)propyl)piperazin-1-yl)-1-methyl-2-oxo-1,2-dihydropyrido[3,2-d]pyrimidine-6-carbonitrile], the pIC50 (commonly the IC50 on a negative log10 scale, so that one unit is a factor of ten) was 5.20 at human DGKζ and 6.13 on human DGKα. Further, the pEC50 (as a rule, −log10 of the EC50, conventionally taken in molar units) in the assay with whole blood (pERK) is 7.14.

`CCC(c1ccc(OCC2CN(C)C2)cc1)N1C[C@H](C)N(c2nc(=O)n(C)c3ccc(C#N)nc23)C[C@H]1CC` (stereo partly drawn) [Example 344, 4-((2 S, 5R)-5-ethyl-2-methyl-4-(1-(4-((1-methylazetidin-3-yl)methoxy)phenyl)propyl)piperazin-1-yl)-1-methyl-2-oxo-1,2-dihydropyrido[3,2-d]pyrimidine-6-carbonitrile]: the pIC50 was 4.77 at human DGKζ and 5.00 on human DGKα. This compound also showed a pEC50 in the assay with whole blood (pERK) of 4.70.

Turning to `CCC(c1ccc(OCC2(C)CC2)cc1)N1C[C@H](C)N(c2nc(=O)n(C)c3ccc(C#N)nc23)C[C@H]1CC` (stereo partly drawn) [Example 345, 4-((2S,5R)-5-ethyl-2-methyl-4-(1-(4-((1-methylcyclopropyl)methoxy)phenyl)propyl)piperazin-1-yl)-1-methyl-2-oxo-1,2-dihydropyrido[3,2-d]pyrimidine-6-carbonitrile], the pIC50 at human DGKζ was 7.02; on human DGKα, 7.31. Also, the pEC50 with whole blood (pERK) is 5.76.

Take `CCC(c1ccc(OCC2(C)CC2)cc1)N1C[C@H](C)N(c2nc(=O)n(C)c3ccc(C#N)nc23)C[C@H]1CC` (stereo partly drawn) [Example 346, 4-((2S,5R)-5-ethyl-2-methyl-4-(1-(4-((1-methylcyclopropyl)methoxy)phenyl)propyl)piperazin-1-yl)-1-methyl-2-oxo-1,2-dihydropyrido[3,2-d]pyrimidine-6-carbonitrile]: the results for the pIC50 at human DGKζ and on human DGKα were 5.91 and 5.89, respectively. The compound further showed a pEC50 in the assay on whole blood (pERK) of 6.72.

As to `CCC(c1ccc(OCc2nccs2)cc1)N1C[C@H](C)N(c2nc(=O)n(C)c3ccc(C#N)nc23)C[C@H]1CC` (stereo partly drawn) [Example 347, 4-((2S,5R)-5-ethyl-2-methyl-4-(1-(4-(thiazol-2-ylmethoxy)phenyl)propyl)piperazin-1-yl)-1-methyl-2-oxo-1,2-dihydropyrido[3,2-d]pyrimidine-6-carbonitrile], the pIC50 is 6.02 on human DGKζ and 6.49 at human DGKα. In the assay with whole blood (pERK), this compound had a pEC50 of 5.70.

For `CCC(c1ccc(OCc2nccs2)cc1)N1C[C@H](C)N(c2nc(=O)n(C)c3ccc(C#N)nc23)C[C@H]1CC` (stereo partly drawn) [Example 348, 4-((2S,5R)-5-ethyl-2-methyl-4-(1-(4-(thiazol-2-ylmethoxy)phenyl)propyl)piperazin-1-yl)-1-methyl-2-oxo-1,2-dihydropyrido[3,2-d]pyrimidine-6-carbonitrile], the figures for the pIC50 at human DGKζ and on human DGKα were 7.35 and 7.21, respectively. The same compound had a pEC50 with whole blood (pERK) of 5.71.

As for `CCC(c1nc(C2CC2)no1)N1C[C@H](CC)N(c2nc(=O)n(C)c3ccc(C#N)nc23)C[C@H]1CC` (stereo partly drawn) [Example 364, 4-((2S,5R)-4-(1-(3-cyclopropyl-1,2,4-oxadiazol-5-yl)propyl)-2,5-diethylpiperazin-1-yl)-1-methyl-2-oxo-1,2-dihydropyrido[3,2-d]pyrimidine-6-carbonitrile], the results for the pIC50 at human DGKζ and at human DGKα were 6.48 and 7.28, respectively. The compound also gave a pEC50 in the assay on whole blood (pERK) of 5.74.

For the compound `CC[C@@H]1CN(c2nc(=O)n(C)c3ccc(C#N)nc23)[C@@H](C)CN1C(c1nc(C2CC2)no1)C(C)C` (stereo partly drawn) [Example 365, 4-((2S,5R)-4-(1-(3-cyclopropyl-1,2,4-oxadiazol-5-yl)-2-methylpropyl)-5-ethyl-2-methylpiperazin-1-yl)-1-methyl-2-oxo-1,2-dihydropyrido[3,2-d]pyrimidine-6-carbonitrile], the pIC50 was 7.68 at human DGKζ and 7.80 on human DGKα. For the same compound, in the assay on whole blood (pERK), the pEC50 was 5.36.

In the case of `CC(c1ccc(CN2C[C@@H](C)O[C@@H](C)C2)cc1)N1C[C@H](C)N(c2nc(=O)n(C)c3ccc(C#N)nc23)C[C@H]1C` (stereo partly drawn) [Example 389, 4-((2S,5R)-4-(1-(4-(((2S,6R)-2,6-dimethylmorpholino)methyl)phenyl)ethyl)-2,5-dimethylpiperazin-1-yl)-1-methyl-2-oxo-1,2-dihydropyrido[3,2-d]pyrimidine-6-carbonitrile], the negative logarithm of the IC50 (pIC50) on human DGKζ was 5.09; on human DGKα, 6.00. Besides, in the assay on whole blood (pERK), the pEC50 is 6.43.

In the case of `CC(c1ccc(CN2CC3(COC3)C2)cc1)N1C[C@H](C)N(c2nc(=O)n(C)c3ccc(C#N)nc23)C[C@H]1C` (stereo partly drawn) [Example 392, 4-((2S,5R)-4-(1-(4-((2-oxa-6-azaspiro[3.3]heptan-6-yl)methyl)phenyl)ethyl)-2,5-dimethylpiperazin-1-yl)-1-methyl-2-oxo-1,2-dihydropyrido[3,2-d]pyrimidine-6-carbonitrile], the pIC50 is 4.47 at human DGKζ and 5.55 at human DGKα. The same compound had a pEC50 in the assay with whole blood (pERK) of 5.16.

Consider `CC(c1ccc(CN2CC3(COC3)C2)cc1)N1C[C@H](C)N(c2nc(=O)n(C)c3ccc(C#N)nc23)C[C@H]1C` (stereo partly drawn) [Example 393, 4-((2S,5R)-4-(1-(4-((2-oxa-6-azaspiro[3.3]heptan-6-yl)methyl)phenyl)ethyl)-2,5-dimethylpiperazin-1-yl)-1-methyl-2-oxo-1,2-dihydropyrido[3,2-d]pyrimidine-6-carbonitrile], for which the pIC50 at human DGKζ is 3.90; on human DGKα, 4.63. Besides, in the assay on whole blood (pERK), the pEC50 is 5.46.

Consider `CCOC[C@@H]1CN(c2nc(=O)n(C)c3ccc(C#N)nc23)[C@@H](C)CN1C(CC)c1ccc(C(F)(F)F)cc1` (stereo partly drawn) [Example 400, 4-((2S,5S)-5-(ethoxymethyl)-2-methyl-4-(1-(4-(trifluoromethyl)phenyl)propyl)piperazin-1-yl)-1-methyl-2-oxo-1,2-dihydropyrido[3,2-d]pyrimidine-6-carbonitrile], for which the pIC50 was 7.33 at human DGKζ and 6.12 at human DGKα. In the assay on whole blood (pERK), the pEC50 was 4.70.

Take `CCOC[C@@H]1CN(c2nc(=O)n(C)c3ccc(C#N)nc23)[C@@H](C)CN1C(CC)c1ccc(C(F)(F)F)cc1` (stereo partly drawn) [Example 401, 4-((2S,5S)-5-(ethoxymethyl)-2-methyl-4-(1-(4-(trifluoromethyl)phenyl)propyl)piperazin-1-yl)-1-methyl-2-oxo-1,2-dihydropyrido[3,2-d]pyrimidine-6-carbonitrile]: the pIC50 is 6.64 on human DGKζ and 6.80 on human DGKα. Moreover, the pEC50 in the assay on whole blood (pERK) was 5.31.

Turning to `CCC(c1ccc(C(F)(F)F)cc1)N1C[C@H](CC)N(c2nc(=O)[nH]c3ccc(C#N)nc23)C[C@H]1CC` (stereo partly drawn) [Example 415, 4-((2S,5R)-2,5-diethyl-4-(1-(4-(trifluoromethyl)phenyl)propyl)piperazin-1-yl)-2-oxo-1,2-dihydropyrido[3,2-d]pyrimidine-6-carbonitrile], the figures for the pIC50 on human DGKζ and at human DGKα were 4.21 and 5.48, respectively. This compound had a pEC50 in the assay on whole blood (pERK) of 5.46.

In the case of `CCC(c1ccc(C(F)(F)F)cc1)N1C[C@H](CC)N(c2nc(=O)[nH]c3ccc(C#N)nc23)C[C@H]1CC` (stereo partly drawn) [Example 416, 4-((2S,5R)-2,5-diethyl-4-(1-(4-(trifluoromethyl)phenyl)propyl)piperazin-1-yl)-2-oxo-1,2-dihydropyrido[3,2-d]pyrimidine-6-carbonitrile], the pIC50 is 6.13 at human DGKζ and 6.85 on human DGKα. Also, the pEC50 in the assay with whole blood (pERK) is 5.50.

Turning to `CC[C@H]1CN(C(C)c2ccc(C(F)(F)F)cc2)[C@H](CC)CN1c1nc(=O)n(C)c2ccc(C(F)F)nc12` (stereo partly drawn) [Example 439, 4-((2S,5R)-2,5-Diethyl-4-(1-(4-(trifluoromethyl)phenyl)ethyl)piperazin-1-yl)-6-(difluoromethyl)-1-methylpyrido[3,2-d]pyrimidin-2(1H)-one], the pIC50 on human DGKζ was 6.40; on human DGKα, 6.44. In the assay on whole blood (pERK), this compound gave a pEC50 of 4.96.

Take `CC[C@H]1CN(C(C)c2ccc(C(F)(F)F)cc2)[C@H](CC)CN1c1nc(=O)n(C)c2ccc(C(F)F)nc12` (stereo partly drawn) [Example 440, 4-((2S,5R)-2,5-Diethyl-4-(1-(4-(trifluoromethyl)phenyl)ethyl)piperazin-1-yl)-6-(difluoromethyl)-1-methylpyrido[3,2-d]pyrimidin-2(1H)-one]: the pIC50 was 4.35 at human DGKζ and 5.94 on human DGKα. Further, in the assay on whole blood (pERK), the pEC50 was 5.09.

Take `CC[C@@H]1CN(c2nc(=O)n(C)c3ccc(C(F)F)nc23)[C@@H](C)CN1C(C)c1ccc(C(F)(F)F)cc1` (stereo partly drawn) [Example 441, 6-(difluoromethyl)-4-((2S,5R)-5-ethyl-2-methyl-4-(1-(4-(trifluoromethyl)phenyl)ethyl)piperazin-1-yl)-1-methylpyrido[3,2-d]pyrimidin-2(1H)-one]: the pIC50 on human DGKζ was 4.57; on human DGKα, 6.72. This compound also showed a pEC50 in the assay on whole blood (pERK) of 6.15.

`CC[C@H]1CN(C(C)c2ccc(C(F)(F)F)cc2)[C@H](CC)CN1c1nc(=O)n(C)c2ccc(OC(F)F)nc12` (stereo partly drawn) [Example 445, 4-((2S,5R)-2,5-Diethyl-4-(1-(4-(trifluoromethyl)phenyl)ethyl)piperazin-1-yl)-6-(difluoromethoxy)-1-methylpyrido[3,2-d]pyrimidin-2(1H)-one]: the figures for the pIC50 on human DGKζ and at human DGKα were 5.66 and 6.02, respectively. In the assay on whole blood (pERK), the pEC50 is 5.02.

As to `CCC(N1C[C@H](C)N(c2nc(=O)n(C)c3ccc(C#N)nc23)C[C@H]1C)C12CC(C(F)(F)F)(C1)C2` (stereo partly drawn) [Example 447, 4-((2S,5R)-2,5-dimethyl-4-(1-(3-(trifluoromethyl)bicyclo[1.1.1]pentan-1-yl)propyl)piperazin-1-yl)-1-methyl-2-oxo-1,2-dihydropyrido[3,2-d]pyrimidine-6-carbonitrile], the figures for the pIC50 at human DGKζ and at human DGKα were 5.25 and 4.87, respectively. In the assay on whole blood (pERK), the pEC50 is 4.70.
